Ki data for nine compounds are collected here from BindingDB's records for doi:10.1002/cbic.201200279 (University of Southampton, 2012).

A word on the Ki: it is a measure of affinity in units of concentration, obtained from inhibition or displacement. Higher therefore signals weaker binding.

Structures are written as SMILES. Square brackets hold non-standard residues; d marks the D form. Peptide text beside a SMILES is read from it. NMeY = CN[C@@H](Cc1ccc(O)cc1)C(=O)O

Sequence of Bifunctional purine biosynthesis protein ATIC (P31939 whole entry): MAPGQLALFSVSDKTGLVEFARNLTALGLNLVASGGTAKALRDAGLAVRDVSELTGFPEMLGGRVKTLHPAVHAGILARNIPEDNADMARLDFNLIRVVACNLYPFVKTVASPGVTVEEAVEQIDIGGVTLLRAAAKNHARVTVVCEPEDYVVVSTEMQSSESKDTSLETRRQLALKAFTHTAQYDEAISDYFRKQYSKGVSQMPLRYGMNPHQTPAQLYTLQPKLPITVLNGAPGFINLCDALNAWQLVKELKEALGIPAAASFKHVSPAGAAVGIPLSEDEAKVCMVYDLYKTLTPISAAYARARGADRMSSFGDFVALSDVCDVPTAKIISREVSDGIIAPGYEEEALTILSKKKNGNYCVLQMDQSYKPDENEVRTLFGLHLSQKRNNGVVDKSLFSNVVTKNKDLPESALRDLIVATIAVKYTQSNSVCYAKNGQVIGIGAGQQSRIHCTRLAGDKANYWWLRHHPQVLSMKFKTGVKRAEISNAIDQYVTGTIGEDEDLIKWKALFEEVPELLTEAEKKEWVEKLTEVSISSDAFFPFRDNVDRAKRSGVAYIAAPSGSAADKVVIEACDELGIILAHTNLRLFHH

The experiment deals with Bifunctional purine biosynthesis protein ATIC (Homo sapiens, UniProt P31939). Description: Enzyme Inhibition Assay. The note with it: 25 °C. An excerpt:
Enzyme inhibition using aminoimidazole carboxamide ribonucleotide transformylase/inosine monophosphate cyclohydrolase (ATIC).
Regarding `CCNC(=O)[C@H](Cc1ccc(O)cc1)NC(=O)[C@H](CCCN=C(N)N)NC(C)=O` [RY Analogue, 8] (Ac-Arg-Tyr-NHEt), the Ki was 84 µM.
The same measure for `CCNC(=O)[C@H](Cc1ccccc1)NC(=O)[C@H](CCCN=C(N)N)NC(C)=O` [RY Analogue, 9]: 339 µM.
Compound `CCNC(=O)[C@H](Cc1ccc(F)cc1)NC(=O)[C@H](CCCN=C(N)N)NC(C)=O` [RY Analogue, 10] gave a Ki of 135 µM.
Next, `CCNC(=O)[C@H](Cc1ccc(OC)cc1)NC(=O)[C@H](CCCN=C(N)N)NC(C)=O` [RY Analogue, 11] (Ac-Arg-Tyr(Me)-NHEt): 87 µM.
Next, `CCNC(=O)[C@H](Cc1ccc(C#N)cc1)NC(=O)[C@H](CCCN=C(N)N)NC(C)=O` [RY Analogue, 12]: 56 µM.
Next, `CCNC(=O)[C@H](Cc1ccc(B(O)O)cc1)NC(=O)[C@H](CCCN=C(N)N)NC(C)=O` [RY Analogue, 13]: 59 µM; `CCNC(=O)[C@H](Cc1ccc([N+](=O)[O-])cc1)NC(=O)[C@H](CCCN=C(N)N)NC(C)=O` [RY Analogue, 14]: 0.685 µM.
With `CCNC(=O)[C@H](Cc1ccc(O)cc1)N(C)C(=O)[C@H](CCCN=C(N)N)NC(C)=O` [RY Analogue, 16] (Ac-Arg-[NMeY]-NHEt), the Ki was determined as 145 µM.
The same measure for `CCNC(=O)[C@H](Cc1ccc([N+](=O)[O-])cc1)N(C)C(=O)[C@H](CCCN=C(N)N)NC(C)=O` [RY Analogue, 17]: 2.5 µM.
